Active and inactive are the calls of the source. No cut-off for these calls is given here.
How the values were obtained:
[1] = Inhibition of Erythrina variegata agglutinin-mediated hemagglutinination of rabbit erythrocytes
[2] = Inhibition of wheat-germ agglutinin-mediated hemagglutinination of rabbit erythrocytes; parameters: species or system Triticum aestivum
[3] = tested on: Triticum aestivum; experiment: Binding affinity to wheat-germ agglutinin assessed as precipitation by UV detection based precipitation analysis
[4] = tested on: Erythrina variegata; experiment: Binding affinity to Erythrina variegata agglutinin assessed as precipitation by UV detection based precipitation analysis
[5] = tested on: Triticum aestivum; experiment: Binding affinity to wheat-germ agglutinin assessed as precipiting bands by double diffusion test
[6] = tested on: Erythrina variegata; experiment: Binding affinity to Erythrina variegata agglutinin assessed as precipiting bands by double diffusion test
[7] = tested on: Triticum aestivum; experiment: Binding affinity to wheat-germ agglutinin assessed as increase in response units by surface plasmon resonance

SMILES	IC50 [1] [µM]	IC50 [2] [µM]	Activity [3]	Activity [4]	Activity [5]	Activity [6]	Activity [7]
CC(=O)N[C@@H]1[C@@H](O)[C@H](O[C@@H]2O[C@H](CO)[C@H](O)[C@H](O)[C@H]2O)[C@@H](CO)O[C@H]1NC(=O)CCCCCC(=O)N[C@@H]1O[C@H](CO)[C@@H](O[C@@H]2O[C@H](CO)[C@H](O)[C@H](O)[C@H]2O)[C@H](O)[C@H]1NC(C)=O	47						
CC(=O)N[C@@H]1[C@@H](O)[C@H](O[C@@H]2O[C@H](CO)[C@H](O)[C@H](O)[C@H]2O)[C@@H](CO)O[C@H]1NC(=O)CN(CCOCCOCCN(CC(=O)N[C@@H]1O[C@H](CO)[C@@H](O[C@@H]2O[C@H](CO)[C@H](O)[C@H](O)[C@H]2O)[C@H](O)[C@H]1NC(C)=O)CC(=O)N[C@@H]1O[C@H](CO)[C@@H](O[C@@H]2O[C@H](CO)[C@H](O)[C@H](O)[C@H]2O)[C@H](O)[C@H]1NC(C)=O)CC(=O)N[C@@H]1O[C@H](CO)[C@@H](O[C@@H]2O[C@H](CO)[C@H](O)[C@H](O)[C@H]2O)[C@H](O)[C@H]1NC(C)=O	1.2	> 4000	inactive	Active	inactive	Active	
CC(=O)N[C@@H]1[C@@H](O)[C@H](O[C@@H]2O[C@H](CO)[C@H](O)[C@H](O)[C@H]2O)[C@@H](CO)O[C@H]1O	94						
CC(=O)N[C@H]1[C@H](O[C@H]2[C@H](O)[C@@H](NC(C)=O)C(O)O[C@@H]2CO)O[C@H](CO)[C@@H](O)[C@@H]1O (stereo not given in full)		750					
CC(=O)N[C@@H]1[C@@H](O)[C@H](O)[C@@H](CO)O[C@H]1NC(=O)CN(CCOCCOCCN(CC(=O)N[C@@H]1O[C@H](CO)[C@@H](O)[C@H](O)[C@H]1NC(C)=O)CC(=O)N[C@@H]1O[C@H](CO)[C@@H](O)[C@H](O)[C@H]1NC(C)=O)CC(=O)N[C@@H]1O[C@H](CO)[C@@H](O)[C@H](O)[C@H]1NC(C)=O		> 4000		inactive	inactive		Dose-dependent effect

Continued, values first:

IC50 [1] [µM]	IC50 [2] [µM]	Activity [3]	Activity [4]	Activity [5]	Activity [6]	Activity [7]	SMILES
	0.18		inactive	Active		Dose-dependent effect	CC(=O)N[C@@H]1[C@@H](O)[C@H](O[C@@H]2O[C@H](CO)[C@@H](O)[C@H](O)[C@H]2NC(C)=O)[C@@H](CO)O[C@H]1NC(=O)CCCCCNC(=O)CN(CCOCCOCCN(CC(=O)NCCCCCC(=O)N[C@@H]1O[C@H](CO)[C@@H](O[C@@H]2O[C@H](CO)[C@@H](O)[C@H](O)[C@H]2NC(C)=O)[C@H](O)[C@H]1NC(C)=O)CC(=O)NCCCCCC(=O)N[C@@H]1O[C@H](CO)[C@@H](O[C@@H]2O[C@H](CO)[C@@H](O)[C@H](O)[C@H]2NC(C)=O)[C@H](O)[C@H]1NC(C)=O)CC(=O)NCCCCCC(=O)N[C@@H]1O[C@H](CO)[C@@H](O[C@@H]2O[C@H](CO)[C@@H](O)[C@H](O)[C@H]2NC(C)=O)[C@H](O)[C@H]1NC(C)=O
	5.86		inactive	Active		Dose-dependent effect	CC(=O)N[C@@H]1[C@@H](O)[C@H](O[C@@H]2O[C@H](CO)[C@@H](O)[C@H](O)[C@H]2NC(C)=O)[C@@H](CO)O[C@H]1NC(=O)CN(CCOCCOCCN(CC(=O)N[C@@H]1O[C@H](CO)[C@@H](O[C@@H]2O[C@H](CO)[C@@H](O)[C@H](O)[C@H]2NC(C)=O)[C@H](O)[C@H]1NC(C)=O)CC(=O)N[C@@H]1O[C@H](CO)[C@@H](O[C@@H]2O[C@H](CO)[C@@H](O)[C@H](O)[C@H]2NC(C)=O)[C@H](O)[C@H]1NC(C)=O)CC(=O)N[C@@H]1O[C@H](CO)[C@@H](O[C@@H]2O[C@H](CO)[C@@H](O)[C@H](O)[C@H]2NC(C)=O)[C@H](O)[C@H]1NC(C)=O
5.9		inactive	Active	inactive	Active		CC(=O)N[C@@H]1[C@@H](O)[C@H](O[C@@H]2O[C@H](CO)[C@H](O)[C@H](O)[C@H]2O)[C@@H](CO)O[C@H]1NC(=O)CCCCCNC(=O)CN(CCOCCOCCN(CC(=O)NCCCCCC(=O)N[C@@H]1O[C@H](CO)[C@@H](O[C@@H]2O[C@H](CO)[C@H](O)[C@H](O)[C@H]2O)[C@H](O)[C@H]1NC(C)=O)CC(=O)NCCCCCC(=O)N[C@@H]1O[C@H](CO)[C@@H](O[C@@H]2O[C@H](CO)[C@H](O)[C@H](O)[C@H]2O)[C@H](O)[C@H]1NC(C)=O)CC(=O)NCCCCCC(=O)N[C@@H]1O[C@H](CO)[C@@H](O[C@@H]2O[C@H](CO)[C@H](O)[C@H](O)[C@H]2O)[C@H](O)[C@H]1NC(C)=O
	46.9		inactive	Active		Dose-dependent effect	CC(=O)N[C@@H]1[C@@H](O)[C@H](O)[C@@H](CO)O[C@H]1NC(=O)CCCCCNC(=O)CN(CCOCCOCCN(CC(=O)NCCCCCC(=O)N[C@@H]1O[C@H](CO)[C@@H](O)[C@H](O)[C@H]1NC(C)=O)CC(=O)NCCCCCC(=O)N[C@@H]1O[C@H](CO)[C@@H](O)[C@H](O)[C@H]1NC(C)=O)CC(=O)NCCCCCC(=O)N[C@@H]1O[C@H](CO)[C@@H](O)[C@H](O)[C@H]1NC(C)=O

Reference: ChEMBL document CHEMBL1159123, “Molecular design of N-linked tetravalent glycosides bearing N-acetylglucosamine, N,N'-diacetylchitobiose and N-acetyllactosamine: Analysis of cross-linking activities with WGA and ECA lectins” (Bioorg Med Chem, 2010)
